Measurements as given in patent publication US7951829B2, “Benzimidazole modulators of VR1” (Janssen Pharmaceutica NV, priority 2006, dated 2011).

Tests used:
hVR1 [1] = target: T1, hVR1 (Homo sapiens, UniProt Q8NER1); assay: Human VR1 (hVR1) Binding Assay ([3H] RTX binding); details: inhibition of [3H] RTX binding, membranes of HEK293 cells transfected with hVR1
T1 construct: expressed in transfected cells; host or cells: HEK293

hVR1 [2] = target: T1, hVR1; assay: Human VR1 (hVR1) Functional Assay (FLIPR intracellular calcium, capsaicin challenge); format: cell-based; details: capsaicin 0.030 μM, HEK293 cells expressing hVR1; for inhibition at 1 µM: test concentration 1 μM

T1 sequence (Q8NER1 whole entry): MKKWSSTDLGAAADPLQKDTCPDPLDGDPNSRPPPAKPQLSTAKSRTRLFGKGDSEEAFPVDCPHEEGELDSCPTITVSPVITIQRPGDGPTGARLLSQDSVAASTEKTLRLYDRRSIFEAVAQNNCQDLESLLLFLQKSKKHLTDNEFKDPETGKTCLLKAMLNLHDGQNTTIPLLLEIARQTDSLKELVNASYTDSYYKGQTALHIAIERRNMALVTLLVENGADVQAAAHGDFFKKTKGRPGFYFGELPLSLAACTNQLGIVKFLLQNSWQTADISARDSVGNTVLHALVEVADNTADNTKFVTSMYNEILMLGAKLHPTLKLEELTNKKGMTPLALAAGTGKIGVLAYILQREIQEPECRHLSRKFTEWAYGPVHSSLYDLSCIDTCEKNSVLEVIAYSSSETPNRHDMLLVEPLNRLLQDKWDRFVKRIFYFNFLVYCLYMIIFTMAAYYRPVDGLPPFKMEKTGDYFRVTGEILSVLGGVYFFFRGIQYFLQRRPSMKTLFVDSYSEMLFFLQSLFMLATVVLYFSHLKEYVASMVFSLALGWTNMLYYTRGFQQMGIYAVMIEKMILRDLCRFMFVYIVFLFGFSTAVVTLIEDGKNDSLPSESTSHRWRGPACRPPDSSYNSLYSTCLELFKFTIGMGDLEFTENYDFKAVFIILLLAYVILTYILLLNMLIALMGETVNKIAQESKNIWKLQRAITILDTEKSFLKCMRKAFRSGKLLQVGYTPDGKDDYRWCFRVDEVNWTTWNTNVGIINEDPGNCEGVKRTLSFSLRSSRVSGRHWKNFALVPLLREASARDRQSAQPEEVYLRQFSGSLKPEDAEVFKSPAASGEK

Ki (hVR1 [1]) [nM] | IC50 (hVR1 [2]) [nM] | inhibition at 1 µM (hVR1 [2]) [%] | Compound
380 | 1000 | 49 | Oc1ccccc1-c1ccc2[nH]c(/C=C/c3ccc(C(F)(F)F)cc3)nc2c1 [Cpd 14, (E)-2-{2-[2-(4-trifluoromethyl-phenyl)-vinyl]-1H-benzimidazol-5-yl}-phenol]
81 | 54 | 99 | CC(=O)c1ccccc1-c1ccc2[nH]c(/C=C/c3ccc(S(=O)(=O)C(F)(F)F)cc3)nc2c1 [Cpd 40, (E)-1-(2-{2-[2-(4-trifluoromethanesulfonyl-phenyl)-vinyl]-1H-benzimidazol-5-yl}-phenyl)-ethanone]
18 | 7 | 100 | NS(=O)(=O)c1ccccc1-c1ccc2[nH]c(/C=C/c3ccc(Cl)cc3)nc2c1 [Cpd 79, (E)-2-{2-[2-(4-chloro-phenyl)-vinyl]-1H-benzimidazol-5-yl}-benzenesulfonamide]
6 | 6 | 98 | NS(=O)(=O)c1ccccc1-c1ccc2[nH]c(/C=C/c3ccc(OC(F)(F)F)cc3)nc2c1 [Cpd 69, (E)-2-{2-[2-(4-trifluoromethoxy-phenyl)-vinyl]-1H-benzimidazol-5-yl}-benzenesulfonamide]
820 |  | 44 | Oc1ccccc1-c1ccc2[nH]c(/C=C/c3ccc(SC(F)(F)F)cc3)nc2c1 [Cpd 36, (E)-2-{2-[2-(4-trifluoromethylsulfanyl-phenyl)-vinyl]-1H-benzimidazol-5-yl}-phenol]
39 | 7 | 98 | NS(=O)(=O)c1ccccc1-c1ccc2[nH]c(/C=C/c3ccc(F)cc3)nc2c1 [Cpd 434, (E)-2-{2-[2-(4-fluoro-phenyl)-vinyl]-1H-benzimidazol-5-yl}-benzenesulfonamide]
22 | 22 | 99 | NS(=O)(=O)c1ccccc1-c1ccc2[nH]c(/C=C/c3ccc(S(=O)(=O)C(F)(F)F)cc3)nc2c1 [Cpd 71, (E)-2-{2-[2-(4-trifluoromethanesulfonyl-phenyl)-vinyl]-1H-benzimidazol-5-yl}-benzenesulfonamide]
41 | 120 | 100 | CC(=O)c1ccccc1-c1ccc2[nH]c(/C=C/c3ccc(C(F)(F)F)cc3)nc2c1 [Cpd 15, (E)-1-(2-{2-[2-(4-trifluoromethyl-phenyl)-vinyl]-1H-benzimidazol-5-yl}-phenyl)-ethanone]
19 | 6 | 100 | CNS(=O)(=O)c1ccccc1-c1ccc2[nH]c(/C=C/c3ccc(Br)cc3)nc2c1 [Cpd 312, (E)-2-{2-[2-(4-bromo-phenyl)-vinyl]-1H-benzimidazol-5-yl}-N-methyl-benzenesulfonamide]

Further lines, the compound ahead of its results:

Compound | Ki (hVR1 [1]) [nM] | IC50 (hVR1 [2]) [nM] | inhibition at 1 µM (hVR1 [2]) [%]
CC(C)(C)c1ccc(/C=C/c2nc3cc(-c4ccccc4C(N)=O)ccc3[nH]2)cc1 [Cpd 5, (E)-2-{2-[2-(4-tert-butyl-phenyl)-vinyl]-1H-benzimidazol-5-yl}-benzamide] | 17 | 71 | 100
CC(C)(C)c1ccc(/C=C/c2nc3cc(-c4ccccc4NS(C)(=O)=O)ccc3[nH]2)cc1 [Cpd 9, (E)-N-(2-{2-[2-(4-tert-butyl-phenyl)-vinyl]-1H-benzimidazol-5-yl}-phenyl)-methanesulfonamide] | 0.9 | 2 | 99
CC(=O)c1ccccc1-c1ccc2[nH]c(/C=C/c3ccc(C(C)(C)C)cc3)nc2c1 [Cpd 1, (E)-1-(2-{2-[2-(4-tert-butyl-phenyl)-vinyl]-1H-benzimidazol-5-yl}-phenyl)-ethanone] | 9.7 | 27 | 100
CC(=O)Nc1ccccc1-c1ccc2[nH]c(/C=C/c3ccc(C(C)(C)C)cc3)nc2c1 [Cpd 4, (E)-N-(2-{2-[2-(4-tert-butyl-phenyl)-vinyl]-1H-benzimidazol-5-yl}-phenyl)-acetamide] | 31 | 400 | 78
CC(=O)c1ccccc1-c1ccc2[nH]c(/C=C/c3ccc(F)c(F)c3)nc2c1 [Cpd 27, (E)-1-(2-{2-[2-(3,4-difluoro-phenyl)-vinyl]-1H-benzimidazol-5-yl}-phenyl)-ethanone] | 1800 | 260 | 100
CC(=O)Nc1ccccc1-c1cc2nc(/C=C/c3ccc(C(C)(C)C)cc3)[nH]c2cc1C(F)(F)F [Cpd 50, (E)-N-(2-{2-[2-(4-tert-butyl-phenyl)-vinyl]-6-trifluoromethyl-1H-benzimidazol-5-yl}-phenyl)-acetamide] | 16 | 100 | 100
CC(C)(C)c1ccc(CCc2nc3cc(-c4ccccc4O)ccc3[nH]2)cc1 [Cpd 32, 2-{2-[2-(4-tert-butyl-phenyl)-ethyl]-1H-benzimidazol-5-yl}-phenol] | 100 | 380 | 77
CC(C)c1ccc(/C=C/c2nc3cc(-c4ccccc4NS(C)(=O)=O)ccc3[nH]2)cc1 [Cpd 407, (E)-N-(2-{2-[2-(4-isopropyl-phenyl)-vinyl]-1H-benzimidazol-5-yl}-phenyl)-methanesulfonamide] | 5.7 | 9 | 96
CC(C)(C)c1ccc(/C=C/c2nc3cc(-c4ccccc4CO)c(C(F)(F)F)cc3[nH]2)cc1 [Cpd 51, (E)-(2-{2-[2-(4-tert-butyl-phenyl)-vinyl]-6-trifluoromethyl-1H-benzimidazol-5-yl}-phenyl)-methanol] | 6.4 | 66 | 100
CNS(=O)(=O)c1ccccc1-c1ccc2[nH]c(/C=C/c3ccc(C(F)(F)F)c(F)c3)nc2c1 [Cpd 319, (E)-2-{2-[2-(3-fluoro-4-trifluoromethyl-phenyl)-vinyl]-1H-benzimidazol-5-yl}-N-methyl-benzenesulfonamide] | 6 | 10 | 100
CC(=O)Nc1ccccc1-c1cc2nc(/C=C/c3ccc(C(F)(F)F)cc3)[nH]c2cc1C(F)(F)F [Cpd 56, (E)-N-(2-{6-trifluoromethyl-2-[2-(4-trifluoromethyl-phenyl)-vinyl]-1H-benzimidazol-5-yl}-phenyl)-acetamide] | 120 | 110 | 100
CC(C)(C)c1ccc(/C=C/c2nc3cc(-c4ccccc4O)ccc3[nH]2)cc1 [Cpd 3, (E)-2-{2-[2-(4-tert-butyl-phenyl)-vinyl]-1H-benzimidazol-5-yl}-phenol] | 20 | 140 | 
